According to patent publication US20180200279A1, “INHIBITION OF HSV-1-ASSOCIATED CORNEAL NEOVASCULARIZATION USING INHIBITORS OF CYCLIN-DEPENDENT KINASE 9” (XAVIER UNIVERSITY OF LOUISIANA, priority 2014, published 2018):

Key:
[1] = test system: HSV-1 17syn+ induced corneal neovascularization; test: HSV-1 corneal neovascularization mouse model, slit-lamp examination score; assay type: in vivo, Balb/c mice; conditions: day 25 post infection; drops 4 times daily for 14 days; 1% TFT, 0.01% flavopiridol, 0.1% DRB; n=10
Protocol: Corneal neovascularization was determined in a masked fashion by slit lamp analysis on days 2, 4, 7, 9, 11, 14, 18, and 25 post-infection (PI) with 5×10^5 PFU/eye of HSV-1 17syn+ using the formula A=(C×0.4×L×n)/2 where C=clock hours of neovascularization; 30° arc is 1 (360° circle with a total of 12); L is the length of the longest neovessel, and A is the area of neovascularization.
All experimental procedures were performed in accordance with the ARVO Resolution for the Use of Animals in Ophthalmic and Vision Research and were approved by the Xavier University Animal Care and Use Committee. Female 20 g Balb/c mice were obtained from Charles River Laboratories. Mice were allowed to equilibrate to their surroundings for 2 weeks and then were anesthetized by intramuscular administration of xylazine (6.6 mg/kg of body weight) and ketamine (100 mg/kg of body weight). The corneas were mildly scarified in a 2×2 cross-hatch pattern and each cornea was inoculated with 5×10^5 PFU of strain HSV 17syn+. […] Average neovascularization/eye was scored using the formula A=(C×0.4×L×π)/2 where C=clock hours of neovascularization; 30° arc is 1 (360° circle with a total of 12); L is the length of the longest neovessel, and A is the area of neovascularization. Students scored (by eye) the animals on the days indicated in a masked fashion using the slit-lamp, and images representative of each group were taken. Clinical scores based on epiphora, inflammation and discharge were calculated where 0=no manifestations, +1=slight manifestations, +2=moderate manifestations, and +3=severe manifestations. […] Ex ovo chick embryo chorioallantoic membrane collagen angiogenesis assays were performed using methods as previously described (Deryugina E I and Quigley J P. Chapter 2. Chick embryo chorioallantoic membrane models to quantify angiogenesis induced by inflammatory and tumor cells or purified effector molecules. Methods Enzymol. 444:21-41. 2008). […]
This was assessed with the dose and frequency that was used in the chemotherapeutic study of HSV-1 corneal neovascularization. […]

[2] = test system: corneal neovascularization due to alkali burn; test: Corneal neovascularization due to chemical (NaOH) burn in mice; assay type: in vivo, Balb C mice; conditions: 0.01% FP 5× daily; four days post injury; 0.15N NaOH for 15 seconds
Protocol: Following chemical treatment of mouse eyes with 0.15N NaOH, control and treated eyes were scored for neovascularization using the formula A=(C×0.4×L×pi)/2; where C=clock hours of neovascularization; 30° arc is 1 (360° L is the length of the longest neovessel, and A is the area of neovascularization. Animals were scored using a slit-lamp microscope, and images representative of each group were taken. One day post injury, flavopirodol reduced neovascularization to the level observed in undamaged and in damaged but prednisone-treated eyes.
To determine whether FP would reduce corneal neovascularization due to chemical injury in a mouse model system, female Balb C mice (7 per group) were treated in their right eyes with 0.15N NaOH for 15 seconds and the left eye was not treated with NaOH. […] Neovascularization was scored using the formula A=(C×0.4×L×pi)/2; where C=clock hours of neovascularization; 30° arc is 1 (360° L is the length of the longest neovessel, and A is the area of neovascularization. Animals were scored in a masked fashion using a slit-lamp microscope, and images representative of each group were taken. The longest possible length of a neovessel is 1.6 mm and the greatest possible arc is 12/12 hours.

[3] = test system: HSV-1 17syn+ ocular infection; test: HSV-1 ocular infection mouse model, H&E histology of eyes (leukocytic infiltration, peripheral neovascularization); assay type: in vivo, Balb/c mice; conditions: day 25 PI
Protocol: Histological score (0-1) was calculated based on leukocytic infiltration and peripheral neovascularization of hematoxylin & eosin (H&E) stained slides of mouse eyes on day 25 PI.
All experimental procedures were performed in accordance with the ARVO Resolution for the Use of Animals in Ophthalmic and Vision Research and were approved by the Xavier University Animal Care and Use Committee. Female 20 g Balb/c mice were obtained from Charles River Laboratories. Mice were allowed to equilibrate to their surroundings for 2 weeks and then were anesthetized by intramuscular administration of xylazine (6.6 mg/kg of body weight) and ketamine (100 mg/kg of body weight). The corneas were mildly scarified in a 2×2 cross-hatch pattern and each cornea was inoculated with 5×10^5 PFU of strain HSV 17syn+. […] DNA was collected by swabbing the eyes with filter paper, and the eyes were examined with a slit-lamp on PI days 2, 4, 7, 9, 11, 14, 18 and 25. Average neovascularization/eye was scored using the formula A=(C×0.4×L×π)/2 where C=clock hours of neovascularization; 30° arc is 1 (360° circle with a total of 12); L is the length of the longest neovessel, and A is the area of neovascularization. Students scored (by eye) the animals on the days indicated in a masked fashion using the slit-lamp, and images representative of each group were taken. Clinical scores based on epiphora, inflammation and discharge were calculated where 0=no manifestations, +1=slight manifestations, +2=moderate manifestations, and +3=severe manifestations. Mice were sacrificed with CO2 on day 25 post-infection, and eyes were harvested, sectioned, stained with hematoxylin and eosin (H&E) for histological analysis based on peripheral neovascularization and leukocytic infiltration where 0=clear eyes, 0.5=either peripheral neovascularization or leukocytic infiltration, and 1=both peripheral neovascularization and leukocytic infiltration. Ex ovo chick embryo chorioallantoic membrane collagen angiogenesis assays were performed using methods as previously described (Deryugina E I and Quigley J P. Chapter 2. Chick embryo chorioallantoic membrane models to quantify angiogenesis induced by inflammatory and tumor cells or purified effector molecules. Methods Enzymol. 444:21-41. 2008). Briefly, fertilized embryos (Charles River Laboratories, Charleston, S.C.) were incubated at 37.5° C. for 3 days, removed from their shell using a Dremel tool and placed into a covered weighing boat for 7 further days of incubation. […] Four collagen onplants were added per egg on at least 3 separate eggs. After three additional days of incubation, images were taken of each plug using a mini-Vid camera (LW Scientific; Lawrenceville, Ga.) and quantified in a masked fashion based on the percentage of grids that were positive for newly formed blood vessels.
To confirm the results in FIGS. 1A and 1B, sections of one cornea from each mouse was sectioned, stained with H&E and analyzed for leukocytic infiltrate and peripheral neovascularization of the cornea.

HUVEC = test: In vitro tubule formation assay; assay type: cell-based, human; conditions: 25 ng/mL bFGF and VEGF
Protocol: The number of circular tubular structures formed by HUVEC under conditions of serum starvation followed by treatment with 25 ng/mL bFGF and VEGF and with 0-200 nM FP were quantitatively analyzed. Manual counting at low power fields was used to quantitate tubular structures and percentage of inhibition was expressed using VEGF control wells as 100%.
Growth factor-reduced Geltrex (Life Technologies, Grand Island, N.Y.) was thawed overnight on ice. Each well of 96-well plated was coated at […] with 50 μL Geltrex and incubated at 37° C. for 30 min. […] After 12-16 hours, tubule formation was assessed with an inverted photomicroscope and the images were photographed using Olympus U-RLF-T microscope. Manual counting at low power fields was used to quantitate tubular structures and percentage of inhibition was expressed using VEGF control wells as 100%. Results represent one triplicate repeat of three independent experiments with similar results.
Following migration from the vessel of origin and invasion through the ECM, ECs form capillary tubules. […] The number of circular nodes surrounded by tubular structures was quantitatively analyzed in a masked fashion.

global transcription = conditions: low-dose FP; Lu et al. Mol Cancer Ther (2004); cited from earlier work
[4] = Ocular safety and tolerability of the formulation, mouse eyes; assay type: in vivo; conditions: dose and frequency of the HSV-1 corneal neovascularization study
Protocol: This was assessed with the dose and frequency that was used in the chemotherapeutic study of HSV-1 corneal neovascularization. FIG. 1A presents the results of slit-lamp examination (SLE) scores of the corneas of the four treatment groups beginning on post-inoculation day 2 and continuing to 25 days following infection.

## CN1CC[C@H](c2c(O)cc(O)c3c(=O)cc(-c4ccccc4Cl)oc23)[C@H](O)C1 [flavopiridol]
[1]
  slit-lamp examination (SLE) score of corneal neovascularization: 0.039±0.176
[2]
  corneal neovascularization after alkali burn (slit-lamp area score): reduced neovascularization due to alkali burn to the level observed in undamaged and in damaged but prednisone-treated eyes
[3]; H&E sections
  mouse eyes exhibiting corneal neovascularization: 0%
  mouse eyes exhibiting leukocytic infiltration: 0%
[3]; H&E stained corneal sections
  histological score (scale 0-1) for leukocytic infiltrate and peripheral neovascularization: 0.125±0.125
HUVEC; 50 nM flavopiridol, not statistically different from control
  tubular structures, VEGF control wells as 100%: 114.7±7.17
HUVEC; 100 nM flavopiridol, not statistically different from control
  tubular structures, VEGF control wells as 100%: 97.67±5.36
HUVEC; 150 nM flavopiridol, significantly reduced
  tubular structures, VEGF control wells as 100%: 55.33±9.70
Global transcription
  block of global transcription: does not block global transcription
[4]
  safety and tolerability of the formulation in the eye: safe and well-tolerated
